Results reported in patent US20090253662A1, “GENETIC RISK ASSESSMENT IN HEART FAILURE: IMPACT OF GENETIC VARIATION OF ALDOSTERONE SYNTHASE PROMOTER POLYMORPHISM” (NitroMed, Inc., priority 2005, published 2009).
Structures can show the parent of a compound that is named as a salt.

How the values were obtained:
[1] = cited from earlier work
[2] = system: post myocardial infarction; conditions: addition post myocardial infarction; cited from earlier work
[3] = system: black cohorts with hypertension; conditions: cited from earlier work
[4] = system: subjects with severe heart failure; conditions: addition of spironolactone; cited from earlier work
[5] = system: African American subjects with heart failure; assay: Left ventricular remodeling by transthoracic echocardiography at baseline and six months; assay type: in vivo, human
Method: Subjects were followed to an endpoint of death or heart failure hospitalization. Quality of Life Assessment was performed by the Minnesota Living with Heart Failure Questionnaire at baseline and at the six month visit. Left ventricular function was assessed transthoracic echocardiography at baseline and six months. The primary endpoint for A-HeFT was a composite weighted score with three components: mortality, heart failure hospitalization and change in quality of life. Left ventricular remodeling was investigated in a subset of A-HeFT subjects by transthoracic echocardiography at baseline and at six months. Event free survival was compared by genotype class by Kaplan-Meier log rank analysis, using a linear model that predicts an intermediate phenotype for heterozygotes. Continuous variables such as composite scores were compared by genotype class by linear ANOVA. For the interaction of aldosterone genotype and the impact of therapy, outcomes analyzed by genotype were compared first overall and then separately by treatment subset, fixed combination of isosorbide dinitrate and hydralazine versus placebo.

Q: Which solubility in alcohol ([1]; alcohol) does the source give for NNc1nncc2ccccc12 [Hydralazine hydrochloride, hydralazine hydrochloride] here?
A: Its solubility in alcohol is “slightly soluble”.

Q: And the solubility in ether ([1]; ether)?
A: Its solubility in ether is “very slightly soluble”.

Q: And the solubility in water [1]?
A: Its solubility in water is “soluble”.

Q: For COC(=O)[C@@H]1CC2=CC(=O)CC[C@]2(C)[C@@]23O[C@@H]2C[C@@]2(C)[C@@H](CC[C@@]24CCC(=O)O4)[C@H]13 [eplerenone], which survival [2] is on record?
A: The survival was “improves survival”.

Q: What about the “effectiveness versus angiotensin II antagonists” value [3] of the same compound?
A: The value was “more effective than angiotensin II antagonists”.

Q: What does the source list for O=[N+]([O-])O[C@H]1CO[C@H]2[C@@H]1OC[C@H]2O[N+](=O)[O-] [isosorbide dinitrate, 1,4,3,6-dianhydro-D-glucitol-2,5-dinitrate]?
A: solubility in organic solvents ([1]; organic solvents such as ethanol, ether and chloroform): freely soluble; solubility in water [1]: sparingly soluble

Q: For CC(=O)S[C@@H]1CC2=CC(=O)CC[C@]2(C)[C@H]2CC[C@@]3(C)[C@@H](CC[C@@]34CCC(=O)O4)[C@H]12 [spironolactone], which survival [4] is on record?
A: The survival was “improved survival”.

Q: What about the “Left Ventricular Diastolic Diameter (LVDD) at 6 Months” value (shortened to “Left Ventricular Diastolic Diameter”) ([5]; -344 CC genotype) of the same compound?
A: The value was 6.5 ± 0.8 cm.

Q: And the “Left Ventricular Ejection Fraction (LVEF) at 6 Months” value ([5]; -344 CC genotype)?
A: The value was 32 ± 6%.

Q: And the “Left Ventricular Diastolic Diameter” value ([5]; -344 TC genotype)?
A: The value was 6.3 ± 1.5 cm.

Q: And the “Left Ventricular Diastolic Diameter” value ([5]; -344 TT genotype)?
A: Its value is 6.2 ± 1.4 cm.
